Results on 84 compounds are retold here after the Bradley open melting point set (2014).

Where “and” joins values, the source holds several entries; their conditions need not be identical. Equal entries are not always repeated.

For orientation: melting point means the temperature, or range, at which the solid turns liquid.

Turning to `Nc1ccccc1B(O)O` [2-aminobenzeneboronic acid], the melting point amounted to 189 °C.

`Oc1cccc2[nH]nnc12` [4-hydroxy-1h-benzotriazole] showed a melting point of 222 °C.

In turn, `C#CCCO` [3-butyn-1-ol] came in with a melting point of -63 °C.

In the case of `OCc1ccc(Cl)c(Cl)c1` [3,4-dichlorobenzyl alcohol], the melting point worked out at 38 °C.

As to `COc1ccc(-c2cc(=O)c3c(O)c(OC)c(O)cc3o2)cc1` [5,7-Dihydroxy-6-methoxy-2-(4-methoxyphenyl)-4H-chromen-4-one], the melting point stood at 225 °C.

Take `Oc1cc(Cl)cc(Cl)c1` [3,5-dichlorophenol]: the melting point is 68 °C.

Regarding `OB(O)c1ccc(C(F)(F)F)cc1F` [2-fluoro-4-(trifluoromethyl)benzeneboronic acid], the melting point amounted to 114 °C.

Consider `CCOC(=O)/C(=N/Nc1ccccc1[N+](=O)[O-])C(C)=O`, for which the melting point came to 74 °C.

Compound `CCCCOC(=O)c1ccc(O)cc1` [butylparaben] returned a melting point of 68.5 °C.

Turning to `CC(CN(C)C)CN1c2ccccc2CCc2ccccc21` (centres undefined) [trimipramine], the melting point came out at 45 °C.

Compound `O=C(O)c1cc(/N=N/c2ccc(S(=O)(=O)Nc3ccccn3)cc2)ccc1O` registered a melting point of 249 °C.

In turn, `CCOC(=O)C1=CC(C)N=N1` (centres undefined) [Ethyl 5-methyl-1H-pyrazole-3-carboxylate] registered a melting point of 82 °C.

`O=C(O)c1ccc(Cl)s1` [5-chlorothiophene-2-carboxylic acid] came in with a melting point of 151 °C.

The compound `CCCCC1C(=O)N(c2ccccc2)N(c2ccccc2)C1=O` [Phenylbutazone] had a melting point of 105 °C.

For the compound `O=C(CCCN1CCC(O)(c2ccc(Cl)cc2)CC1)c1ccc(F)cc1` [haloperidol], the melting point came to 148 °C.

In turn, `Cc1ccc(C(=O)c2ccccc2)cc1` [(4-Methylphenyl)(phenyl)methanone] displayed a melting point of 57 °C.

As for `CNCc1ccccc1` [N-benzylmethylamine], the melting point is -55 °C.

For `c1cc2c3c(cccc3c1)CC2` [acenaphthene], the melting point was 94 °C (2×) and 95 °C.

For the compound `CCCN(CCC)S(=O)(=O)c1ccc(C(=O)O)cc1` [probenecid], the melting point is 198 °C.

As for `O=Cc1ccco1` [furfuraldehyde], the melting point is -36.5 °C.

The compound `O=[N+]([O-])c1ccc(N/N=C/C2=C(/C=C/c3ccccc3)CCCC2)c([N+](=O)[O-])c1` displayed a melting point of 163 °C.

The compound `COc1nc(N)nc(SC)n1` [2-amino-4-methoxy-6-(methylthio)-1,3,5-triazine] gave a melting point of 201 °C.

As to `Cc1ccccc1C(=O)O` [o-toluic acid], the melting point was 105 °C.

`O=C(O)c1cc(C(=O)O)c(C(=O)O)cc1C(=O)O` [Pyromellitic Acid] returned a melting point of 276 °C.

`Cc1ccc(C)c(C)c1` [1,2,4-trimethylbenzene]: the melting point was -44 °C.

`O=C(c1ccccc1)C1CCCCC1` [cyclohexyl phenyl ketone] came in with a melting point of 55 °C.

Take `C(=C\c1cccc(/C=C/c2ccccc2)c1)/c1ccccc1` [1,3-bis[(E)-2-phenylethenyl]benzene]: the melting point was determined as 150 °C.

Turning to `CC(=O)OC1CCC2(C)C(=CCC3C2CCC2(C)C3CCC2(O)C#Cc2ccccc2)C1` (centres undefined) [17-hydroxy-21-phenylpregn-5-en-20-yn-3-yl acetate], the melting point is 148 °C.

Turning to `C[C@H]1O[C@@H](O[C@H]2[C@@H](O)C[C@H](O[C@H]3[C@@H](O)C[C@H](O[C@H]4CC[C@@]5(C)[C@H](CC[C@@H]6[C@@H]5C[C@@H](O)[C@]5(C)C(C7=CC(=O)OC7)CC[C@]65O)C4)O[C@@H]3C)O[C@@H]2C)C[C@H](O)[C@@H]1O` (some centres undefined) [Digoxin], the melting point stood at 249 °C.

With `[SiH3][SiH3]` [Disilane], the melting point is -133 °C.

As to `O=C(O)CCCCCCCCC(=O)O` [sebacic_acid], the melting point was found to be 133 °C.

In turn, `C(#Cc1ccccc1)c1ccccc1` [diphenylacetylene] displayed a melting point of 63 °C.

Turning to `CC1=CCCC1` [1-methylcyclopentene], the melting point was -142 °C.

In the case of `COc1ccc(-c2csc(/C(C#N)=N/Nc3cc(C)ccc3C)n2)cc1`, the melting point is 156 °C.

Turning to `COC(=O)c1ccc(N)cc1` [methyl 4-aminobenzoate], the melting point was 114 °C.

Compound `Cc1ccc(Cl)cc1Cl` [2,4-dichlorotoluene] yielded a melting point of -13 °C.

Compound `O=C(O)c1cc(=O)[nH]c(=O)[nH]1` [Cholergol] registered a melting point of 345 °C.

With `O=C(c1ccccc1)c1cccc(O)c1` [3-hydroxybenzophenone], the melting point came to 114 °C.

Compound `O=C(O)c1cccc([N+](=O)[O-])c1` [3-nitrobenzoic acid] showed a melting point of 142 °C.

Turning to `CN(C)CCC=C1c2ccccc2CCc2ccccc21` [amitriptyline], the melting point came out at 196 °C.

Regarding `CN=C=O` [Isocyanatomethane], the melting point is -80 °C.

Consider `O=C1CCC(c2ccccc2)c2ccccc21` (centres undefined) [1(2H)-Naphthalenone, 3,4-dihydro-4-phenyl-], for which the melting point worked out at 75 °C.

Turning to `O=C(O)C1CCCCC1` [cyclohexanecarboxylic acid], the melting point was 31 °C.

As for `COC(=O)OC` [dimethyl carbonate], the melting point turned out to be 4 °C.

In turn, `Oc1cc(O)c2ccccc2c1` [1,3-dihydroxynaphthalene] gave a melting point of 125 °C.

`O=C(Oc1ccc2ccccc2c1)c1ccccc1` [2-naphthyl benzoate] registered a melting point of 107 °C.

On to `FC(F)(F)c1cccc(Br)n1` [2-bromo-6-(trifluoromethyl)pyridine], for which the melting point was 50 °C.

Turning to `CC(CCc1oc2ccc(C)cc2c1-c1ccc(C)o1)=NO`, the melting point was 104 °C.

`BrC(c1ccccc1)(c1ccccc1)c1ccccc1` [bromotriphenylmethane] gave a melting point of 154 °C.

The compound `CC(C)C1=C(O)C(=O)C2=C(C1=O)C(O)CC1C(C)(C)CCCC21C` (centres undefined) registered a melting point of 174 °C.

In turn, `Clc1ccc(-c2ccc(Cl)cc2Cl)cc1` [PCB-28] had a melting point of 58 °C.

Regarding `Cc1cccc(-c2nnn[nH]2)c1` [5-(3-methylphenyl)-1h-tetrazole], the melting point turned out to be 145 °C.

In turn, `COc1ccc2c(OC)cccc2c1` [1,6-dimethoxynaphthalene] came in with a melting point of 59 °C.

`COC(=O)c1cc(OC)c(OC)c(OC)c1` [methyl_3,4,5-trimethoxybenzoate]: the melting point worked out at 84 °C.

Consider `O=C(O)c1c(F)cnc(F)c1F` [2,3,5-trifluoropyridine-4-carboxylic acid], for which the melting point amounted to 110 °C.

Regarding `O=[N+]([O-])c1cccc(F)c1` [1-fluoro-3-nitrobenzene], the melting point is 2 °C.

In the case of `NNC(=O)CC(=O)NN` [malonic acid dihydrazide], the melting point stood at 154 °C.

Compound `OB(O)c1cc(F)ccc1OCc1ccccc1` [2-benzyloxy-5-fluorobenzeneboronic acid] came in with a melting point of 119 °C.

With `O=C(O)c1cccc(Br)c1` [m-bromobenzoic_acid], the melting point was found to be 157 °C.

On to `CC(=O)C(=Cc1ccc(-c2ccccc2[N+](=O)[O-])o1)C(C)=O` [3-{[5-(2-nitrophenyl)-2-furyl]methylene}pentane-2,4-dione], for which the melting point amounted to 128 °C.

Turning to `Cc1ccc(OC(=O)c2ccccc2)cc1` [p-tolyl_benzoate], the melting point is 70 °C.

For `Nc1ccn([C@H]2CC[C@@H](CO)O2)c(=O)n1` [Zalcitabine], the melting point is 212 °C.

`O=C1CN2CCOC2(c2ccccc2F)c2cc(Br)ccc2N1` (centres undefined) [haloxazolam] returned a melting point of 185 °C.

`Cc1cc(C)nc(C)c1` [2,4,6-collidine] yielded a melting point of -43 °C.

For `Nc1cccc(Cl)c1C(=O)O` [2-amino-6-chlorobenzoic acid], the melting point worked out at 151 °C.

Turning to `O=C4\C=C3/[C@]([C@H]2CC[C@]1([C@@H](CC[C@@]1(O)C)[C@@H]2CC3)C)(C)CC4` [17-methyltestosterone], the melting point came to 164 °C.

Regarding `CC(=O)O[C@]1(C(C)=O)CC[C@H]2[C@@H]3C[C@H](C)C4=CC(=O)CC[C@]4(C)[C@H]3CC[C@@]21C` [(6alpha)-6-Methyl-3,20-dioxopregn-4-en-17-yl acetate], the melting point was found to be 208 °C.

In turn, `COC(=O)[C@H]1[C@@H](OC(=O)c2ccccc2)C[C@@H]2CC[C@H]1N2C` [cocaine] yielded a melting point of 98 °C.

`OC(c1ccccc1)(c1ccccc1)c1ccccc1` [triphenylmethanol] registered a melting point of 163 °C.

As for `N#CCCCCCCC#N` [1,6-dicyanohexane], the melting point was -3 °C.

The compound `COC(=O)c1cc(C)[nH]n1` [1H-pyrazole-3-carboxylic acid, 5-methyl-, methyl ester] showed a melting point of 107 °C.

`II` [Iodine] came in with a melting point of 114 °C.

The compound `Nc1cccc(-n2ccccc2=O)c1` [1-(3-Aminophenyl)pyridin-2(1H)-one] yielded a melting point of 183 °C.

Turning to `O=[N+]([O-])c1ccc(Cl)c(CO)c1` [2-chloro-5-nitrobenzyl alcohol], the melting point amounted to 77 °C.

`CN(C)[C@@H]1C(O)=C(C(N)=O)C(=O)[C@@]2(O)C(O)=C3C(=O)c4c(O)ccc(Cl)c4[C@@](C)(O)[C@H]3C[C@@H]12` [chlortetracycline] gave a melting point of 168 °C.

Compound `CCC(C(=O)NC(=O)NC(C)=O)c1ccccc1` (centres undefined) [1-Acetyl-3-(2-phenylbutyryl)urea] showed a melting point of 100 °C.

On to `Nc1ccc(C(F)(F)F)cc1Br` [2-bromo-4-(trifluoromethyl)aniline], for which the melting point came out at 30 °C.

Regarding `Nc1ccc(O)c([N+](=O)[O-])c1` [4-amino-2-nitrophenol], the melting point worked out at 129 °C.

`CC=O` [acetaldehyde] showed a melting point of -125 °C.

Regarding `N#Cc1cccc(C(=O)O)c1` [3-cyanobenzoic acid], the melting point came out at 222 °C.

With `OC(c1ccccc1)(c1ccccc1)c1ccccc1` [Triphenylmethanol], the melting point stood at 163 °C.

`CCOCCC(=O)OCC` [ethyl 3-ethoxypropionate] returned a melting point of -100 °C.

With `COc1ccc(Br)cc1` [4-bromoanisole], the melting point was 11 °C.

In turn, `OCc1c(F)c(F)c(F)c(F)c1F` [2,3,4,5,6-Pentafluorobenzyl Alcohol] came in with a melting point of 37.5 °C.
